# A melting point compilation (Tetko et al.; mined from patent text by program, amines drawn as free bases though some values may be those of a salt)
row,SMILES,melting point [°C]
1,O=C(O)CCCc1c(Cl)cccc1-c1ccccc1,74 to 76
2,CC(C)n1c(=O)cc(C(F)(F)F)[nH]c1=O,127 to 129
3,COc1cc2nc(N)nc(-c3cc(-c4ccccc4)cc(-c4ccc(O)cc4)c3)c2cc1OC,255 to 257
4,NS(=O)(=O)c1ccc(-n2nc(C=O)cc2-c2ccccc2)cc1,177 to 180
5,CCCCNS(=O)(=O)CC(O)C(O)C(CC1CCCCC1)NC(=O)c1ccncc1 (stereo not given),168 to 186
6,Cc1ccc(C2(O)CCN(CCCN3c4cccc5cccc(c45)S3(=O)=O)CC2)cc1,218
7,CCCCCCCCNC(=O)NCCCCC,65 to 65.5
8,Clc1ccc2ncsc2c1Cl,180 to 198
9,CN(C)Cc1ccc(-c2ccc(C(=O)c3ccc(Br)cc3)c(O)c2)cc1,85 to 88
10,Fc1cc(Cl)ccc1-n1nc2c(c1Cl)CCC2,102 to 104
11,O=S1OC(c2ccc(F)cc2)C(Cn2cncn2)(c2ccc(Cl)cc2Cl)O1 (stereo not given),170 to 171
12,Cc1cc(Br)c2c(c1)N(S(=O)(=O)c1ccc(Cl)cc1)CCO2,143 to 145
13,CCC(=O)Nc1nn(C)c2c1sc1ccccc12,88 to 89
14,Cn1cc(S(C)(=O)=O)c(=O)c2ccc(C(C)(C)C)cc21,247 to 248
15,O=C(O)c1cc2ccccc2n1Cc1cc([N+](=O)[O-])cc2[nH]c(=O)c(=O)[nH]c12,> 300
16,COc1cc(C)c(C)cc1NC(=S)N1CCN(c2cc(Cl)cc(Cl)c2)CC1,188 to 189
17,COc1ccc(C)cc1NC(=O)Nc1ccc(N2CCN(C(=O)Nc3ccc(OCC(O)CO)cc3Cl)CC2)cc1 (stereo not given),134 to 136
18,CCCCNC(=O)[C@H](C)C[C@H](O)[C@H](CC1CCCCC1)NC(=O)[C@H](Cc1cscn1)NC(=O)[C@@H](CC(=O)N1CCN(C)CC1)Cc1ccc(OC)cc1,125 to 126
19,OC1CSC(Oc2cc(-c3cccnc3F)ccc2Cl)C(O)C1O (stereo not given),165
20,O=C(CCc1ccccc1)Nc1cc(-c2nnc(CCc3cccc(C(F)(F)F)c3)o2)ccn1,169 to 170
21,CCN1c2ccccc2Sc2ccccc21,103 to 104
22,CC(=O)Nc1nc2cc(CN3CCN(C(c4ccccc4)c4ccccc4)CC3)ccc2n1C,202
23,CCOC(=O)C(=CNc1ncnc2ccc(NS(C)(=O)=O)cc12)C(=O)OCC,200 to 202
24,CC(CC#CCN1CCN(C)CC1)C(=O)N1c2ccccc2C(=O)Nc2cccnc21 (stereo not given),212 to 214
25,CCCCCCCCCCCc1cc2cc(C(=O)OCC)ccc2[nH]1,76 to 77

row,SMILES,melting point [°C]
1,O=c1[nH]nc2c3c(cccc13)N=C(CN1CCCNCC1)N2,147 to 149
2,O=c1cc(-c2ccncn2)nc2n1CCC1(CCNC1)N2 (stereo not given),226 to 228
3,Cc1c(Cl)cccc1-n1c(=O)[nH]c2cccnc21,224 to 225
4,CCOC(=O)c1cn(-c2cc(NC(=O)OC(C)(C)C)c(F)cc2F)c2c(Cl)c(N)c(F)cc2c1=O,143 to 150
5,CC(CN1CCN(C(c2ccc(F)cc2)c2ccc(F)cc2)CC1)Cn1c(=O)[nH]c2ccccc21 (stereo not given),176
6,Oc1ccc(Cl)cc1CN1CCCCC1,53 to 56
7,C1=CC(n2nc(-c3cccc4ccccc34)cc2-c2ccccc2)(n2nc(-c3cccc4ccccc34)cc2-c2ccccc2)CC=C1c1ccccc1,264
8,CN(C)c1ccc2c(c1)SSSSS2,122
9,CC[C@H](C)[C@H](NC(=O)NC(C)C)C(=O)N[C@H](CO)Cc1c[nH]c2ccccc12,211 to 213
10,COC(=O)c1ccc(-n2cccc2C=O)cc1,103 to 105
11,Cn1c(OCC(CO)CO)nc2c(NC(=O)c3ccccc3)ncnc21,151 to 153
12,CCOc1cccc(C(c2ncccc2OC)n2nc(C(=O)O)c3c2-c2ccc(OCc4cncnc4)cc2CC3)c1 (stereo not given),222 to 225
13,N#Cc1cc(NC(=O)c2ccn(-c3ccc(Cl)cc3)c2)ccc1N1CCN(CCO)CC1,196
14,O=c1oc2ccc(OC3CCCCO3)cc2s1 (stereo not given),61 to 63
15,C=C(C)c1cn(C2OC(CO)C(O)C2O)c(=O)[nH]c1=O (stereo not given),212 to 215
16,Oc1ccc(C2COc3cc4c(cc3C2)OCO4)cc1 (stereo not given),139 to 140
17,CC(C)(C)OC(=O)NC12CCC1CN(c1c(F)cc3c(=O)c(C(=O)O)cn(C4CC4)c3c1F)C2 (stereo not given),211 to 215
18,CCSCc1cc2cc(CN3CCOCC3)cc3c(=O)c(C(=O)NCc4ccc(Cl)cc4)cn1c23,177 to 178
19,O=C(NCCSCc1cccc(Cl)c1)c1ccccc1,75 to 76
20,Cc1oc(C2CC=CCC2)nc1CC(=O)O (stereo not given),86 to 87
21,CC(=O)Nc1nc(CCc2ccc(N)cc2)c(C(=O)NCc2ccc([N+](=O)[O-])cc2)s1,120 to 121
22,NCC1Cc2cc(C(F)(F)F)cc(-c3ccc(F)cc3)c2O1 (stereo not given),> 250
23,Cc1cc(C(O)(C(F)(F)F)C(F)(F)F)cc(C)c1NCCC(=O)O,175 to 176
24,COc1cnnc(Oc2ccnc(OC(F)F)c2)c1,119 to 120
25,Clc1ccc(-c2cc(OCCCN3CCCCC3)[nH]n2)cc1,140

row,SMILES,melting point [°C]
1,Cc1cc(C(=O)OC(C)(C)C)cc(C(=O)OC(C)(C)C)c1,86.5 to 87.5
2,C=CCN(CC=C)CC(=O)N1c2ccccc2N(C)C(=O)c2cnc(-c3ccccc3)nc21,139 to 140
3,COc1ccc2c(c1)c1c3c(c(-c4ccccc4Cl)cc1n2CCC(N)=O)C(=O)NC3=O,283 to 286
4,CCOC(=O)C1COc2ccc(Cl)c(Cl)c2O1 (stereo not given),92 to 94
5,COc1ccc([N+](=O)[O-])c(OC2CCOC2=O)c1 (stereo not given),109 to 110
6,COc1c(N2CCO[C@@H](CN(C)C)C2)c(F)cc2c(=O)c(C(=O)O)cn(C3CC3)c12,146 to 147
7,CCCCOc1ccc(C(=O)c2cccc(C(=O)O)c2)c(OC)c1,144 to 145
8,O=c1[nH]c2ccc(Cl)cc2c(=O)n1S(=O)(=O)c1ccc(Cl)cc1,223 to 225
9,CN[C@H]1CCN(c2c(F)cc3c(=O)n(NC)c(=O)n(C4CC4)c3c2Cl)C1,77 to 79
10,CC(C)(O)c1ccc(-c2cnc3c(n2)N(CCN2CCOCC2)CC(=O)N3)cn1,239 to 241
11,Cn1cc(SC(F)(F)F)c(N)n1,138 to 140
12,CCCc1c(C)c(NC(=O)CC(C)(C)C)c(C)c2c1SCC2c1ccc(C(C)C)cc1 (stereo not given),159 to 160
13,CC(C)(C)OC(=O)N1CCC(C(=O)c2nc3ccccc3n2Cc2ccc(F)cc2)CC1,114 to 115
14,CC(CN(C)C)Nc1ccnc2cc3c(cc12)OCO3 (stereo not given),71 to 72
15,CCN(CC)C(=O)c1cc(-c2ccccc2)c(=O)n2c1-c1ccccc1C2,170 to 172
16,O=C(NCc1nccs1)c1cc(N2CCN(Cc3ccc(F)cc3)C2=O)n[nH]1,272 to 274
17,Cn1c(=O)c(-c2c(Cl)cccc2Cl)cc2cnc(N)nc21,235 to 237
18,CN(C1CCCCC1)S(=O)(=O)c1ccc(Cn2cnc3ccccc32)cc1,191 to 193
19,CN(C)S(=O)(=O)N(C)c1ccc(C(=O)Nc2ccc(Cl)cc2)cc1,155 to 156
20,CCCCC(CC)COc1ccc2c(-c3ccc(CO)cc3)c3cc(OCC(CC)CCCC)ccc3c(-c3ccc(CO)cc3)c2c1 (stereo not given),110 to 112
21,Cn1c(=O)n(Cc2cccnc2)c2ccccc21,90
22,O=C(c1ccn2c1CSC2c1cccnc1)c1cn(C(=O)NCCc2c[nH]cn2)c2cc(-c3ccc(F)cc3)ccc12 (stereo not given),156 to 158
23,N#Cc1c(N2CCOCC2)cccc1[N+](=O)[O-],152 to 155
24,CC(C)(C)OC(=O)CCc1cccc(-c2nc(=O)c3ccccc3s2)n1,166
25,CSc1ncc2c(n1)Nc1ccccc1-n1nnnc1-2,244 to 246

row,SMILES,melting point [°C]
1,CC(C)(C)OC(=O)C(N)C1NC(C(=O)OCc2ccccc2)C2(CCN(Cc3ccccc3)CC2)S1 (stereo not given),140 to 141
2,Cc1c(Br)c2c(c(C)c1NC(=O)OC(C)(C)C)C(O)C(C)(C)O2 (stereo not given),187 to 188
3,CN1CCC2(CC1)Oc1ccccc1Cn1cccc12,100 to 101
4,COc1ccc(OCCC#N)cc1,58
5,S=C(Cc1cccs1)N1CCCCC1,51.5 to 52
6,CCc1ccc(Cc2cc(Br)cc(Br)c2O)cc1,90 to 91.5
7,COc1cc(OCCNC(C)=O)cc(-c2nc3cc(OC)cc(OC)c3c(=O)[nH]2)c1,264 to 265
8,CC(C)[Si](Oc1ccc([C@H](O)[C@H](C)N2CCC(O)(c3ccccc3)CC2)cc1)(C(C)C)C(C)C (relative stereo),148 to 151
9,O=C(O)C1CCN1C(c1ccccc1)c1ccccc1 (stereo not given),132 to 137
10,O=C(Nc1ccc(Cl)cn1)c1ccccc1O,206 to 207
11,CN1CCN(CC(O)COc2cccc3ccccc23)CC1 (stereo not given),73 to 74
12,NC(=O)c1c(F)ccc(OCc2ccc3ccccc3n2)c1F,216 to 218
13,CCN(CC)C(=O)n1ccc(Sc2cccc(Cl)c2C)n1,87 to 88
14,COc1ccc(/C=C/C(=O)N[C@@H]2N=C(c3ccccc3)c3ccccc3N(C)C2=O)cc1,129 to 133
15,Cc1ccc(Oc2ccccc2C(=N)NN)c(O)c1,> 260
16,COc1ccc(OC)c2c1COC2=O,168 to 170
17,CSc1ccc([N+](=O)[O-])cc1C(=O)OC(C)(C)C,112 to 113
18,CS(=O)(=O)NCc1cc(-c2ccccc2)c2c(n1)OCCN(Cc1cc(C(F)(F)F)cc(C(F)(F)F)c1)C2=O,194 to 195
19,CCOC(C)O[C@H]1C(=O)N(C(=O)Oc2ccccc2)[C@H]1c1ccccc1 (stereo not given in full),50 to 52
20,O=C(C(=O)c1ccc(F)cc1Br)c1ccccc1,62 to 66
21,Clc1ccc(C2=NOCCS2)s1,74 to 77
22,Cc1nc2c(C(F)(F)F)cccc2c(=O)n1C1CCC(=O)NC1=O (stereo not given),351 to 353
23,O=C(O)Cc1c(C(=O)c2ccc(Cl)cc2)[nH]c2cc(F)ccc12,214
24,CCCn1nnn(-c2cc(O)c(F)cc2F)c1=O,65 to 67
25,Cc1cc(C#N)c2ccccn12,98 to 100
